Laboratory results from patent publication US20240109853A1 (Shanghai Yao Yuan Biotechnology Co., Ltd., priority 2020, published 2024).
Like-named read-outs stand apart in the source and are kept apart here.

Experiments:
ALPK1 = ALPK1 (Homo sapiens (Human), UniProt Q96QP1); assay: ALPK1 in vitro kinase assay (HTRF of TIFA phosphorylation); format: biochemical
[1] = system: ALPK1-dependent NFκB reporter gene activation in HEK293 cells stably expressing an NF-kB reporter (G9 cells); assay: NFκB gene reporter alkaline phosphatase assay; format: cell-based; settings: read-out: NFkB assay IC50
Source text: In embodiments, a compound of Formula I, or a subembodiment described herein, is an inhibitor of ALPK1 as measured, for example, in an in vitro kinase assay, or an assay designed to measure the activation of downstream targets of ALPK1 pathway activation, for example NFkB transcriptional activation and the secretion of proinflammatory cytokines and chemokines, such as IL-8, which is also referred to as CXCL-8. In general, the computer program XL fit was used for data analysis, including non-linear regression analysis. The half maximal inhibitory concentration (IC50) was used as the measure of a compound's effectiveness in the assays. IC50 values were determined using the following logistic equation Y=min+(max−min)/(1+(X/IC50^−hillslpoe), where Y is the value at the compound concentration, X. The concentration response curve fitting was conducted using GraphPad Prism version 6.00 software.
An alkaline phosphatase reporter assay system was used to measure inhibition of ALPK1-dependent NFκB reporter gene activation. Briefly, HEK293 cells stably expressing an NF-kB reporter (referred to herein as “G9 cells”) were maintained in DMEM as described above. For the assay, cells were seeded into 96-well plates at a density of 10,000 cells/well in Freestyle™ 293 Expression Medium (ThermoFisher), and allowed to attach overnight. Cells were pretreated with serially diluted compounds for 30 min and then stimulated with D-glycero-D-manno-6-fluoro-heptose-1β-S-ADP. […] NFkB gene activation was detected using the chromogenic substrate, para-nitrophenyl phosphate (pNPP) according to the manufacturer's protocols (pNPP Phosphatase Assay, Beyotime Biotechnology).

Sequence of ALPK1 (Q96QP1 whole entry): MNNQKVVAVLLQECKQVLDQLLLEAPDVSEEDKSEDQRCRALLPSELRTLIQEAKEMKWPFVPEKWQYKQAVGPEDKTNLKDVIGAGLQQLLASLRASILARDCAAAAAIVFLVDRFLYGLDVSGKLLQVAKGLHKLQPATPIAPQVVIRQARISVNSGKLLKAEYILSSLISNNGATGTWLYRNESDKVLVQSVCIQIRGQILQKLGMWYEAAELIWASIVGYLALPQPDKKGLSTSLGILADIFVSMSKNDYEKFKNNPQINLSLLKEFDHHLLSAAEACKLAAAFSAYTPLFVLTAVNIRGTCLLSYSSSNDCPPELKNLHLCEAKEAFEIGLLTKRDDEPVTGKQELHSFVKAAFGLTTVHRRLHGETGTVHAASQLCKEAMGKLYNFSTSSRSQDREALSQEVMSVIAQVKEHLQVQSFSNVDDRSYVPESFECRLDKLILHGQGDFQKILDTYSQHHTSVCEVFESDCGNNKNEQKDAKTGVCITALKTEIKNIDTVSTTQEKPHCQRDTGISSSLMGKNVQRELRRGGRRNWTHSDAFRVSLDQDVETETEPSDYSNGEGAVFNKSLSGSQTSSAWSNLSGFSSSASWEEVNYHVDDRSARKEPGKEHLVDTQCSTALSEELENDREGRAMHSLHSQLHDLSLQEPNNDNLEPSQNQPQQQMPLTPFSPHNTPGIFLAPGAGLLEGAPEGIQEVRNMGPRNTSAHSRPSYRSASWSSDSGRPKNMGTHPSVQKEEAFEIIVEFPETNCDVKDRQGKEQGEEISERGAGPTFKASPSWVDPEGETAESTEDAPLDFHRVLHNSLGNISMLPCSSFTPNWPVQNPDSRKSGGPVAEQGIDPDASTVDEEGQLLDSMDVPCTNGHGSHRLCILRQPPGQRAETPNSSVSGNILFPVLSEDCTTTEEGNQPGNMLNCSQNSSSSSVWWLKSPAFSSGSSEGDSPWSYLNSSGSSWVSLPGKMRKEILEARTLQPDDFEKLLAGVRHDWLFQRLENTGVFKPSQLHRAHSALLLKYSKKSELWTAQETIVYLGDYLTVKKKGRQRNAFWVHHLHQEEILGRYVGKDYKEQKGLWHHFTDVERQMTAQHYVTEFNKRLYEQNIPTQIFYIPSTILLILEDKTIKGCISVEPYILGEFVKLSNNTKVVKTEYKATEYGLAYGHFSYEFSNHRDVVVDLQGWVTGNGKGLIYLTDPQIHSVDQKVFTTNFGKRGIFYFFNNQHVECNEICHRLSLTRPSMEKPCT

Row | SMILES | IC50 (ALPK1) [µM] | IC50 ([1]; Homo sapiens, HEK293) [µM] | IC50 [1] [µM]
1 | C#CC(C)(c1ccc(Br)cc1)c1csc(NC(N)=O)n1 (stereo in doubt) [Example A163, (S)-1-(4-(2-(4-bromophenyl)but-3-yn-2-yl)thiazol-2-yl)urea] | 0.004 | 0.35 | –
2 | C#CC(C)(c1ccc(Br)cc1)c1csc(NC(N)=O)n1 (stereo in doubt) [Example A164, (R)-1-(4-(2-(4-bromophenyl)but-3-yn-2-yl)thiazol-2-yl)urea] | 0.017 | 0.59 | –
3 | C#C[C@](C)(c1ccc(Br)cc1)c1csc(NC(=O)NCC(O)CO)n1 (stereo in doubt) [Example A277, 1-(4-(2-(4-bromophenyl)but-3-yn-2-yl)thiazol-2-yl)-3-(2,3-dihydroxypropyl)urea] | 2.67 | 1.23 | –
4 | C#C[C@@](C)(c1ccc(Br)cc1)c1csc(NC(=O)NCC(O)CO)n1 (stereo in doubt) [Example A278, 1-(4-(2-(4-bromophenyl)but-3-yn-2-yl)thiazol-2-yl)-3-(2,3-dihydroxypropyl)urea] | 0.624 | 0.52 | –
5 | C#C[C@](C)(c1ccc(F)cc1)c1csc(NC(=O)NCCO)n1 (stereo in doubt) [Example A282, 1-(4-(2-(4-fluorophenyl)but-3-yn-2-yl)thiazol-2-yl)-3-(2-hydroxyethyl)urea] | 2.15 | 7.72 | –
6 | C#C[C@](C)(c1ccc(Cl)cc1)c1csc(NC(=O)NCC2(O)CNC2)n1 (stereo in doubt) [Example A286, 1-(4-(2-(4-chlorophenyl)but-3-yn-2-yl)thiazol-2-yl)-3-((3-hydroxyazetidin-3-yl)methyl)urea] | 0.495 | 15.4 | –
7 | C#C[C@@](C)(c1ccc(Cl)cc1)c1csc(NC(=O)NCC2(O)CNC2)n1 (stereo in doubt) [Example A287, 1-(4-(2-(4-chlorophenyl)but-3-yn-2-yl)thiazol-2-yl)-3-((3-hydroxyazetidin-3-yl)methyl)urea] | 0.13 | 4.4 | –
8 | C#C[C@](C)(c1ccc(Cl)cc1)c1csc(NC(=O)N2CC(CN3CCNCC3)C2)n1 (stereo in doubt) [Example A291, N-(4-(2-(4-chlorophenyl)but-3-yn-2-yl)thiazol-2-yl)-3-(piperazin-1-ylmethyl)azetidine-1-carboxamide] | 0.109 | 1.65 | –
9 | C#C[C@](C)(c1ccc(Cl)cc1)c1csc(NC(=O)NC(C)(C)CO)n1 (stereo in doubt) [Example A293, 1-(4-(2-(4-chlorophenyl)but-3-yn-2-yl)thiazol-2-yl)-3-(1-hydroxy-2-methylpropan-2-yl)urea] | 9.36 | 8.11 | –
10 | C#C[C@@](C)(c1ccc(Cl)cc1)c1csc(NC(=O)NC(C)(C)CO)n1 (stereo in doubt) [Example A294, 1-(4-(2-(4-chlorophenyl)but-3-yn-2-yl)thiazol-2-yl)-3-(1-hydroxy-2-methylpropan-2-yl)urea] | 0.285 | 3.04 | –
11 | C#C[C@](C)(c1ccc(Cl)cc1)c1csc(NC(=O)NC(CO)CO)n1 (stereo in doubt) [Example A297, 1-(4-(2-(4-chlorophenyl)but-3-yn-2-yl)thiazol-2-yl)-3-(1,3-dihydroxypropan-2-yl)urea] | 0.935 | 4.39 | –
12 | C#C[C@@](C)(c1ccc(Cl)cc1)c1csc(NC(=O)NC(CO)CO)n1 (stereo in doubt) [Example A298, 1-(4-(2-(4-chlorophenyl)but-3-yn-2-yl)thiazol-2-yl)-3-(1,3-dihydroxypropan-2-yl)urea] | 0.246 | 1.15 | –
13 | C#C[C@](C)(c1ccc(Br)cc1)c1csc(NC(=O)NCC(C)(C)O)n1 (stereo in doubt) [Example A305, 1-[4-[1-(4-bromophenyl)-1-methyl-prop-2-ynyl]thiazol-2-yl]-3-(2-hydroxy-2-methyl-propyl)urea] | 0.167 | 2.69 | –
14 | C#C[C@@](C)(c1ccc(Br)cc1)c1csc(NC(=O)NCC(C)(C)O)n1 (stereo in doubt) [Example A306, 1-[4-[1-(4-bromophenyl)-1-methyl-prop-2-ynyl]thiazol-2-yl]-3-(2-hydroxy-2-methyl-propyl)urea] | 0.056 | 0.83 | –
15 | [2H]C([2H])(O)CNC(=O)Nc1nc([C@@](C)(C#C)c2ccc(Cl)cc2)cs1 (stereo in doubt) [Example A321, 1-[4-[1-(4-chlorophenyl)-1-methyl-prop-2-ynyl]thiazol-2-yl]-3-(2,2-dideuterio-2-hydroxy-ethyl)urea] | 0.028 | 0.3 | –
16 | COc1ccc(C(C)(C)c2csc(NC(=O)NC(C)c3ccc(N4CCNCC4)nc3)n2)cc1 (stereo not drawn) [Example A001, 1-(4-(2-(4-methoxyphenyl)propan-2-yl)thiazol-2-yl)-3-(1-(6-(piperazin-1-yl)pyridin-3-yl)ethyl)urea] | 0.058 | 0.67 | –
17 | COc1ccc(C(C)(C)c2csc(NC(=O)NC(C)c3cc(F)c(N4CCNCC4)cc3F)n2)cc1 (stereo not drawn) [Example A002, 1-(1-(2,5-difluoro-4-(piperazin-1-yl)phenyl)ethyl)-3-(4-(2-(4-methoxyphenyl)propan-2-yl)thiazol-2-yl)urea] | 0.063 | 0.7 | –
18 | CC(C)(c1ccc(Br)cc1)c1csc(NC(=O)NCc2ccc(C3CCNCC3)c(F)c2)n1 [Example A222, 1-(4-(2-(4-bromophenyl)propan-2-yl)thiazol-2-yl)-3-(3-fluoro-4-(piperidin-4-yl)benzyl)urea] | – | 0.93 | –
19 | C#CC(C)(c1ccc(OC)cc1)c1csc(NC(=O)NC(C)c2ccc(N3CCNCC3)cc2)n1 (stereo not drawn) [Example A234, 1-(4-(2-(4-methoxyphenyl)but-3-yn-2-yl)thiazol-2-yl)-3-(1-(4-(piperazin-1-yl)phenyl)ethyl)urea] | – | 2.67 | –
20 | COc1ccc(C(C)(CO)c2csc(NC(=O)NC(C)c3ccc(N4CCNCC4)cc3)n2)cc1 (stereo not drawn) [Example A235, 1-(4-(1-hydroxy-2-(4-methoxyphenyl)propan-2-yl)thiazol-2-yl)-3-(1-(4-(piperazin-1-yl)phenyl)ethyl)urea] | – | 27 | –
21 | C#CC(C)(c1ccc(Br)cc1)c1csc(NC(=O)NCCN2CCNCC2)n1 (stereo not drawn) [Example A239, 1-(4-(2-(4-bromophenyl)but-3-yn-2-yl)thiazol-2-yl)-3-(2-(piperazin-1-yl)ethyl)urea] | – | 0.85 | –
22 | C#C[C@@](C)(c1ccc(Cl)cc1)c1nc(NC(=O)NCCO)sc1Cl [Example A247, (S)-1-(5-chloro-4-(2-(4-chlorophenyl)but-3-yn-2-yl)thiazol-2-yl)-3-(2-hydroxyethyl)urea] | – | 1.85 | –
23 | C#C[C@](C)(c1ccc(Cl)cc1)c1nc(NC(=O)NCCO)sc1Cl [Example A248, (R)-1-(5-chloro-4-(2-(4-chlorophenyl)but-3-yn-2-yl)thiazol-2-yl)-3-(2-hydroxyethyl)urea] | – | 2.73 | –
24 | C#C[C@@](C)(c1ccc(Cl)cc1)c1csc(NC(=O)N2CCc3cc(N4CCNCC4)ccc3C2)n1 [Example A260, (S)-N-(4-(2-(4-chlorophenyl)but-3-yn-2-yl)thiazol-2-yl)-6-(piperazin-1-yl)-3,4-dihydroisoquinoline-2(1H)-carboxamide] | – | 1.08 | –
25 | C#C[C@@](C)(c1ccc(Cl)cc1)c1csc(NC(=O)N2CCc3cc(N4CCNCC4)ccc3C2)n1 [Example A281, N-(4-(2-(4-chlorophenyl)but-3-yn-2-yl)thiazol-2-yl)-6-(piperazin-1-l)-3,4-dihydroisoquinoline-2(1H)-carboxamide] | – | – | 0.86
